Molecular target: T1, BCL6::BCOR (Homo sapiens, UniProt P41182, C67R/C84N/C8Q)
T1 construct: BCL6 (amino acids 5 to 129, with the following changes to the natural protein); made in house; host or cells: E. coli
Assay: BCL6::BCOR ULight TR-FRET assay
Format: binding
Text: Biological Methods BCL6::BCOR ULight TR-FRET Assay:
Biotinylated BCL6 protein corresponding to BCL6 (amino acids 5 to 129, with the following changes to the natural protein: C8Q, C67R, C84N) is expressed in E. coli with a carboxy-terminal Avi tag (amino acid sequence […]). The BCOR ULight peptide uses a direct carboxy-terminal ULight tag (PerkinElmer). The sequence of the peptide is CRSEIISTAPSSWVVPGP, with the amino terminus acetylated and the ULight tag attached to the cysteine. Compounds are dispensed onto assay plates (Proxiplate 384 PLUS, white, PerkinElmer) using an Access Labcyte Workstation with the Labcyte Echo 55×from a DMSO solution. For the chosen highest assay concentration of 100 μM, 150 nl of compound solution are transferred from a 10 mM DMSO compound stock solution. A series of 11 concentrations is transferred for each compound at which each concentration is fivefold lower than the previous one. DMSO is added such that every well has a total of 150 nl compound solution. 5 μL of 1 nM BCL6 protein in assay buffer (50 mM HEPES pH 7.3; 125 mM NaCl; 1 mM GSH; 0.01% Triton-X 100; 0.03% BSA) are added to the 150 nl of compounds. After 30 minutes incubation time at room temperature, 10 μL of a mix containing BCOR ULight peptide (100 nM final assay concentration) and Streptavidin-Europium (0.75 nM final assay concentration) are added. Plates are kept at room temperature. After 240 minutes incubation time the TR-FRET signal is measured in a PerkinElmer Envision HTS Multilabel Reader using the TR-FRET LANCE Ultra specs of PerkinElmer. Each plate contains negative controls (diluted DMSO instead of test compound; BCOR peptide and Streptavidin Europium mix with BCL6 protein) and positive controls (diluted DMSO instead of test compound; BCOR peptide and Streptavidin-Europium mix without BCL6 protein). Negative and positive control values are used for normalization.

SMILES | IC50
CNC(=O)COc1cc2cc(Nc3nc(N4CCC(C(=O)O)CC4)ncc3Cl)ccc2n(CC2CC2)c1=O [Compound I-86] | 3 nM
CNC(=O)COc1cc2cc(Nc3nc(N4C[C@H](C)C[C@H](C)C4)ncc3Cl)ccc2n(CC2CC2)c1=O [Compound I-87] | 15 nM
CNC(=O)COc1cc2cc(Nc3nc(N4CCC(F)CC4)ncc3Cl)ccc2n(CC2CC2)c1=O [Compound I-88] | 6 nM
CNC(=O)COc1cc2cc(Nc3nc(N4CCC(F)(F)CC4)ncc3Cl)ccc2n(CC2CC2)c1=O [Compound I-89] | 8 nM
CNC(=O)COc1cc2cc(Nc3nc(N4CCC(C(=O)N5CCN(C)CC5)CC4)ncc3Cl)ccc2n(C)c1=O [Compound I-90] | 7 nM
CNC(=O)COc1cc2cc(Nc3nc(N4CCN(CCC(=O)O)CC4)ncc3Cl)ccc2n(C)c1=O [Compound I-91] | 7 nM
CNC(=O)COc1cc2cc(Nc3nc(N4CCN(CCC(=O)O)C(=O)C4)ncc3Cl)ccc2n(C)c1=O [Compound I-92] | 5 nM
CNC(=O)COc1cc2cc(Nc3nc(N4CCC(CC(=O)O)CC4)ncc3Cl)ccc2n(C)c1=O [Compound I-93] | 4 nM
CNC(=O)COc1cc2cc(Nc3nc(N4CCC(C(=O)O)CC4)ncc3Cl)cc(OC)c2n(C)c1=O [Compound I-94] | 2 nM
CNC(=O)COc1cc2cc(Nc3nc(N4CCC[C@@H](C(=O)O)C4)ncc3Cl)cc(OC)c2n(C)c1=O [Compound I-95] | 2 nM
CNC(=O)COc1cc2cc(Nc3nc(N4CCC[C@H](C(=O)O)C4)ncc3Cl)cc(OC)c2n(C)c1=O [Compound I-96] | 2 nM
CNC(=O)COc1cc2cc(Nc3nc(N4CCC(F)(F)CC4)ncc3Cl)cc(OC)c2n(C)c1=O [Compound I-97] | 4 nM
CNC(=O)COc1cc2cc(Nc3nc(N4CCC(F)CC4)ncc3Cl)cc(OC)c2n(C)c1=O [Compound I-98] | 4 nM
CNC(=O)COc1cc2cc(Nc3nc(N4C[C@H](C)C[C@H](C)C4)ncc3Cl)cc(OC)c2n(C)c1=O [Compound I-99] | 7 nM
C[C@@H]1C[C@H](C)CN(c2ncc(F)c(Nc3ccc4c(c3)cc(OCC(=O)O)c(=O)n4C)n2)C1 [Compound I-100] | 12 nM
Cn1c(=O)c(OCC(=O)O)cc2cc(Nc3nc(N4CCC(Nc5ncccn5)CC4)ncc3Cl)ccc21 [Compound I-101] | 10 nM
Cn1c(=O)c(OCC(=O)O)cc2cc(Nc3nc(N4CCC(C(=O)O)CC4)ncc3Cl)ccc21 [Compound I-102] | 7 nM
Cn1c(=O)c(OCC(=O)O)cc2cc(Nc3nc(N4CCC5(CC4)OCCCO5)ncc3Cl)ccc21 [Compound I-103] | 10 nM
CCOC(=O)CC1CCCN(c2ncc(Cl)c(Nc3ccc4c(c3)cc(OCC(=O)O)c(=O)n4C)n2)C1 (stereo not drawn) [Compound I-104] | 10 nM
Cn1c(=O)c(OCC(=O)O)cc2cc(Nc3nc(N4CCCN(c5ccccc5)CC4)ncc3Cl)ccc21 [Compound I-105] | 114 nM
Cn1c(=O)c(OCC(=O)O)cc2cc(Nc3nc(N4CCc5ccccc5CC4)ncc3Cl)ccc21 [Compound I-106] | 210 nM
CCNC(=O)C1CCCN(c2ncc(Cl)c(Nc3ccc4c(c3)cc(OCC(=O)O)c(=O)n4C)n2)C1 (stereo not drawn) [Compound I-107] | 10 nM
Cn1c(=O)c(OCC(=O)O)cc2cc(Nc3nc(N4C[C@H]5C[C@@H](C4)c4ccccc45)ncc3Cl)ccc21 [Compound I-108] | 38 nM
Cn1c(=O)c(OCC(=O)O)cc2cc(Nc3nc(N4CCC(c5ccccc5)CC4)ncc3Cl)ccc21 [Compound I-109] | 21 nM
COCCN1CCN(c2ncc(Cl)c(Nc3ccc4c(c3)cc(OCC(=O)O)c(=O)n4C)n2)CC1C (stereo not drawn) [Compound I-110] | 17 nM
Cn1c(=O)c(OCC(=O)O)cc2cc(Nc3nc(N4CCC5(CCCCC5)CC4)ncc3Cl)ccc21 [Compound I-111] | 108 nM
CCOC1CCCN(c2ncc(Cl)c(Nc3ccc4c(c3)cc(OCC(=O)O)c(=O)n4C)n2)C1 (stereo not drawn) [Compound I-112] | 7 nM

SMILES | IC50
C#CC1CCN(c2ncc(Cl)c(Nc3ccc4c(c3)cc(OCC(=O)O)c(=O)n4C)n2)CC1 [Compound I-113] | 7 nM
CC1CN(c2ncc(Cl)c(Nc3ccc4c(c3)cc(OCC(=O)O)c(=O)n4C)n2)CCS1 (stereo not drawn) [Compound I-114] | 9 nM
Cn1cnc2c1CCN(c1ncc(Cl)c(Nc3ccc4c(c3)cc(OCC(=O)O)c(=O)n4C)n1)C2 [Compound I-115] | 9 nM
Cn1c(=O)c(OCC(=O)O)cc2cc(Nc3nc(N4CCc5[nH]nnc5C4)ncc3Cl)ccc21 [Compound I-116] | 10 nM
C[C@H]1CN(c2ncc(Cl)c(Nc3ccc4c(c3)cc(OCC(=O)O)c(=O)n4C)n2)CCO1 [Compound I-117] | 11 nM
Cn1c(=O)c(OCC(=O)O)cc2cc(Nc3nc(N4CCCC(F)(F)CC4)ncc3Cl)ccc21 [Compound I-118] | 16 nM
CC1CCCN(c2ncc(Cl)c(Nc3ccc4c(c3)cc(OCC(=O)O)c(=O)n4C)n2)C1 (stereo not drawn) [Compound I-119] | 13 nM
Cn1c(=O)c(OCC(=O)O)cc2cc(Nc3nc(N4CCC(N5CCOCC5)C4)ncc3Cl)ccc21 (stereo not drawn) [Compound I-120] | 11 nM
CC1CCN(c2ncc(Cl)c(Nc3ccc4c(c3)cc(OCC(=O)O)c(=O)n4C)n2)CC1 [Compound I-121] | 10 nM
CCC1CN(c2ncc(Cl)c(Nc3ccc4c(c3)cc(OCC(=O)NC)c(=O)n4C)n2)CCN1CC(F)F (stereo not drawn) [Compound I-122] | 6 nM
CNC(=O)COc1cc2cc(Nc3nc(N4CCCC(CCCCN5CCCC5)C4)ncc3Cl)ccc2n(C)c1=O (stereo not drawn) [Compound I-123] | 7 nM
CNC(=O)COc1cc2cc(Nc3nc(N4CCC5CN(Cc6ccccc6)CC54)ncc3Cl)ccc2n(C)c1=O (stereo not drawn) [Compound I-125] | 10 nM
CCN(CC)CCCCC1CCCN(c2ncc(Cl)c(Nc3ccc4c(c3)cc(OCC(=O)NC)c(=O)n4C)n2)C1 (stereo not drawn) [Compound I-126] | 7 nM
CNC(=O)COc1cc2cc(Nc3nc(N4CCCC(CN5CCCCC5)C4)ncc3Cl)ccc2n(C)c1=O (stereo not drawn) [Compound I-127] | 9 nM
CCCN(CCC)CCC1CCN(c2ncc(Cl)c(Nc3ccc4c(c3)cc(OCC(=O)NC)c(=O)n4C)n2)CC1 [Compound I-128] | 7 nM
C[C@@H]1C[C@H](C)CN(c2ncc(Cl)c(Nc3ccc4c(c3)cc(OCC(=O)O)c(=O)n4C)n2)C1 [Compound I-131, 2-{[6-({5-chloro-2-[cis-3,5-dimethylpiperidin-1-yl]pyrimidin-4-yl}amino)-1-methyl-2-oxo-1,2-dihydroquinolin-3-yl]oxy}-acetic acid] | 5 nM
Cn1c(=O)c(OCC(=O)O)cc2cc(Nc3nc(N4CCC(F)CC4)ncc3Cl)ccc21 [Compound I-132, 2-[(6-{[5-chloro-2-(4-fluoropiperidin-1-yl)pyrimidin-4-yl]amino}-1-methyl-2-oxo-1,2-dihydro-quinolin-3-yl)oxy]acetic acid] | 5 nM
C[C@@H]1C[C@H](C)CN(c2ncc(Cl)c(Nc3ccc4c(c3)cc(OCC(=O)N(C)C)c(=O)n4C)n2)C1 [Compound I-133, 2-{[6-({5-chloro-2-[cis-3,5-dimethyl-piperidin-1-yl]pyrimidin-4-yl}amino)-1-methyl-2-oxo-1,2-dihydroquinolin-3-yl]oxy}-N,N-dimethylacetamide] | 29 nM
COCCN(C)C(=O)COc1cc2cc(Nc3nc(N4C[C@H](C)C[C@H](C)C4)ncc3Cl)ccc2n(C)c1=O [Compound I-134] | 77 nM
C[C@@H]1C[C@H](C)CN(c2ncc(Cl)c(Nc3ccc4c(c3)cc(OCC(=O)NCCO)c(=O)n4C)n2)C1 [Compound I-135] | 16 nM
C[C@@H]1C[C@H](C)CN(c2ncc(Cl)c(Nc3ccc4c(c3)cc(OCC(=O)NCC(O)C(F)(F)F)c(=O)n4C)n2)C1 (stereo partly drawn) [Compound I-136] | 269 nM
CCNC(=O)COc1cc2cc(Nc3nc(N4C[C@H](C)C[C@H](C)C4)ncc3Cl)ccc2n(C)c1=O [Compound I-137] | 21 nM
C[C@@H]1C[C@H](C)CN(c2ncc(Cl)c(Nc3ccc4c(c3)cc(OCC(=O)NCCN(C)C)c(=O)n4C)n2)C1 [Compound I-138] | 529 nM
C[C@@H]1C[C@H](C)CN(c2ncc(Cl)c(Nc3ccc4c(c3)cc(OCC(=O)OCCN(C)C)c(=O)n4C)n2)C1 [Compound I-139, 2-(dimethylamino)ethyl 2-{[6-({5-chloro-2-[cis-3,5-dimethylpiperidin-1-yl]pyrimidin-4-yl}amino)-1-methyl-2-oxo-1,2-dihydroquinolin-3-yl]oxy}acetate] | 6 nM
CC(CN(C)C)OC(=O)COc1cc2cc(Nc3nc(N4C[C@H](C)C[C@H](C)C4)ncc3Cl)ccc2n(C)c1=O (stereo partly drawn) [Compound I-140] | 5 nM
C[C@@H]1C[C@H](C)CN(c2ncc(Cl)c(Nc3ccc4c(c3)cc(OCC(=O)OCCCN(C)C)c(=O)n4C)n2)C1 [Compound I-141] | 9 nM
C[C@@H]1C[C@H](C)CN(c2ncc(Cl)c(Nc3ccc4c(c3)cc(OCC(=O)OCCN3CCOCC3)c(=O)n4C)n2)C1 [Compound I-142] | 5 nM
